Earlier results on one molecule are cited in patent US20110311619A1 (Ethypharm, priority 2008, published 2011).

With `CC(C)(Oc1ccc(C(=O)c2ccc(Cl)cc2)cc1)C(=O)O` [fenofibric acid], the mean plasma concentration entry (dose of 300 mg fenofibrate per day) is listed as “roughly 15 μg/ml”. For the setting “in vivo”, the plasma elimination half-life result was “roughly 20 hours”. Under “on average, after ingestion of the drug”, the “time after ingestion at which maximum plasma concentration is reached” value is “five”.
